Laboratory results: patent publication US10052304B2, “Compositions and methods for cancer therapy” (UNIVERSITY OF IOWA RESEARCH FOUNDATION, priority 2015, dated 2018)
“Also recorded” adds a separate entry of the source.

Columns and labels:
NSCLC cells [1] = assay: Cellular labile iron pool (Calcein-AM flow cytometry), NSCLC cells; assay type: cell-based, human; settings: increasing doses of ascorbate
Method: The labile iron pool (LIP) was visualized using the fluorescent dye Calcein-AM as previously described (Epsztejn et al., 1997) with modifications. After labeling, samples were divided into two flow cytometry sample tubes, to which 100 μM 2′,2′-bipyridyl (BIP) was added to one tube and analyzed by flow cytometry. BIP tubes were incubated for at least 15 minutes before analysis to allow for full chelation of intracellular labile iron. The LIP (A.U.)=MFIBIP−MFINoBIP was normalized against the control samples to calculate the relative labile iron pool.
The labile iron pool (LIP) was visualized using the fluorescent dye Calcein-AM as previously described with modifications (Epsztejn et al., 1997). Briefly, after sample treatment, cells were trypsinized, spun at 1,200 rpm for 5 min, and resuspended at approximately 1×10^6 cells mL-1 in 500 nM Calcein-AM in PBS. Samples were incubated for 15 min at 4% O2 in a humidity controlled environment (37° C., 5% CO2). Subsequently, samples were pelleted, washed in PBS, and resuspended in 1 mL PBS before dividing each sample into two flow cytometry sample tubes, to which 100 μM 2′,2′-bipyridyl (BIP) was added to one tube. Samples were kept at room temperature and analyzed on a LSR II Flow Cytometer (BD Biosciences; λex=488 nm, λem=515/20 nm). […]

[2] = test system: advanced stage NSCLC patients; assay: Phase II clinical trial of pharmacological ascorbate with carboplatin and paclitaxel in advanced stage NSCLC; assay type: in vivo, human
Method: This phase II clinical trial was registered with clinicaltrials.gov (NCT 02420314) prior to enrollment of the first subject. Newly diagnosed advanced stage NSCLC patients were invited to participate.
Whole blood was collected from patients around infusions.
(§1) We have not seen any unexpected or unusual increase in Grade 3/4 toxicities as compared to previously published literature, although it remains too early for a direct comparison. Responses to therapy were determined per RECIST 1.1 criteria (Eisenhauer et al., 2009). Currently, four of six patients have completed the trial with imaging-confirmed partial responses to therapy. […] Finally, one patient progressed with a new spinal lesion, although the target lesions are stable; this patient has been transitioned off of the trial.
as §1, with “This phase II clinical trial was registered with clinicaltrials.gov (NCT 02420314) prior to enrollment of the first subject. Newly diagnosed advanced stage NSCLC patients were invited to participate. […] We” for “We”, “a total” for “four”, “eleven subjects have been recruited to the trial, seven of which are currently evaluable for response. Five of seven” for “six”

ARP1 myeloma cells = assay: ARP1 myeloma tumor-bearing model, IP injection, NOD-SCID mice; assay type: in vivo; settings: ascorbate 4 g/kg approximately 15 days, n=3
Method: This experiment was repeated in a tumor-bearing mouse model through IP injection of ARP1 myeloma cells, which allows a solid tumor growth when implanted in mice purpose. A total of […] ARP1 MM cells (in 50 μl PBS) per mouse were injected into NOD-SCID mice through IP.

HBEpCs = assay: Intracellular H2O2 with PeroxyOrange-1, HBEpCs; assay type: cell-based, human; settings: ascorbate 15 pmol cell^−1
Method: (§2) To visualize intracellular H2O2 levels, the selectively sensitive fluorescent probe PeroxyOrange-1 was utilized as previously described with modifications (Dickinson et al., 2010). 1×10^5 cells were plated and grown in their respective media for 48 h. The complete protocol was conducted in the dark with minimal ambient lighting. Cells were washed with PBS and incubated with 10 uM PO-1 in phenol red free RPMI supplemented with HBE growth supplements for 1 h at 37° C. Cells were then washed in PBS and placed back in phenol red free RPMI supplemented with HBE growth supplements. […] At times indicated, cells were placed on ice for the remainder of the protocol, washed, and trypsinized with phenol red free 0.5% trypsin. After 15 min, cells still attached were scraped and all cells were collected in 15 mL conical vials containing PBS+10% FBS to neutralize the trypsin reaction. Cells were spun at 1200 rpm for 5 min at 4° C., resuspended in 300-500 uL PBS and were run on a LSR II Flow Cytometer (BD Biosciences) with λex=561 nm, λem=585/20 nm. The mean fluorescence intensity (MFI) was analyzed (FlowJo™) and corrected for autoflourescence against unlabeled cells. Normalized MFI was calculated by comparing MFI for a given treatment group against control.

NSCLC cells [3] = assay: Intracellular H2O2 with PeroxyOrange-1, NSCLC cells; assay type: cell-based, human; settings: ascorbate 15 pmol cell^−1
Method: as §2

NHA = settings: 1 h ascorbate + 25 μM temozolomide + 2 Gy IR
Method: (§3) After treatment, cells were washed with PBS and clonogenic assay was completed in their respective media as previously described (Fath et al., 2011). Treatment conditions for individual experiments are as described in the figure legends and summarized in the Supplemental Experimental Procedures.
(§4) 1-2×10^5 cells were plated in 60 mm cell culture dishes and grown in their respective media for 48 h before exposed to experimental conditions. […] For AdGPx1 experiments, cells were supplemented with 50 nM sodium selenite following transduction and throughout clonogenic growth. […] After treatment, cells were washed with PBS and clonogenic assay was completed in their respective media. Briefly, floating and attached cells were collected and total cells per plate were counted. An experimentally derived number of cells were plated into each well of a 6-well cell culture plate in their respective media. For HEL92.1.7 suspension cells, cells were seeded in a top layer of 0.4% (w/v) agarose to allow for quantifiable colony formation. After sufficient time (7-12 days, cell type-dependent), cells were fixed in 70% ethanol and stained with a Brilliant Blue methanol solution. […] Normalized survival fractions were calculated by comparing plating efficiencies of each treatment group against the control group within a given experiment.

HBEpC = settings: 1 h ascorbate + 5 μM carboplatin + 2 Gy IR
Method: as §3, §4

[4] = first six patients, ascorbate 75 g twice weekly + carboplatin/paclitaxel

O=C1O[C@H]([C@@H](O)CO)C(O)=C1O [ascorbate, L-ascorbic acid]
cellular LIP after ascorbate (NSCLC cells [1]): significant dose-dependent ascorbate-induced increases in cellular LIP
patient plasma ascorbate level ([2]; after 75 g IV infusions): 16.4 ± 0.5 mM
patients with imaging-confirmed partial responses (RECIST 1.1) ([2]; ascorbate + carboplatin/paclitaxel, evaluable patients to date): four of six; also recorded: Five of seven
disease control rate [2, 4]: 83%
objective response rate [2, 4]: 67%
grade 3/4 toxicities attributed to ascorbate ([2]; through 134 total infusions): no grade 3/4 toxicities attributed to ascorbate
final tumor volume (ARP1 myeloma cells): 50±30 mm3
steady-state levels of H2O2 (PeroxyOrange-1) (HBEpCs): unchanged
steady-state levels of H2O2 (PeroxyOrange-1) (NSCLC cells [3]): significantly increased from baseline
sensitization to temozolomide + IR (clonogenic survival) (NHA): not
sensitization to carboplatin + IR (clonogenic survival) (HBEpC): not
